Biological target: T1, ΔF508-CFTR (Homo sapiens, UniProt P13569, DEL508-508)
T1 construct: Primary lung epithelial cells homozygous for the Cystic Fibrosis-causing ΔF508 mutation were differentiated; endogenous in cells; host or cells: primary human lung/bronchial epithelial cells (hBE) homozygous for ΔF508, differentiated at an air-liquid interface
Experiment: hBE Equivalent Current (Ieq) Assay
Format: cell-based
Details: Compound A at 3 uM, primary lung epithelial cells homozygous for ΔF508, 24 hours treatment
Experimental: ii. hBE Equivalent Current (Ieq) Assay
Primary lung epithelial cells homozygous for the Cystic Fibrosis-causing ΔF508 mutation were differentiated for a minimum of 4 weeks in an air-liquid interface on Costar 24 well HTS filter plates prior to the equivalent current (Ieq) measurements. Cells were apically mucus-washed for 30 minutes 24 h prior to treatment with compounds. The basolateral media was removed and replaced with media containing the compound of interest diluted to its final concentration from DMSO stocks. Treated cells were incubated at 37° C. and 5% CO2 for 24 hours. At the end of the treatment period, the media was changed to the Ieq experimental solution for 2 hours before the experiment and plates are maintained in a CO2-free incubator during this period. The plates containing the cells were then placed in pre-warmed heating blocks at 36° C.±0.5 for 15 minutes before measurements are taken. The transepithelial voltage (VT) and conductance (GT) were measured using a custom 24 channel current clamp (TECC-24) with 24 well electrode manifold. The Ieq assay measurements were made following additions with standardized time periods:
1. The baseline VT and GT values were measured for approximately 20 minutes.
2. Benzamil was added to block ENaC for 15 minutes.
3. Forskolin plus VX-770 were added to maximally activate ΔF508-CFTR for 27 minutes.
4. Bumetanide was added to inhibit the NaK2Cl cotransporter and shut-off secretion of chloride.
The activity data captured was the area under the curve (AUC) for the traces of the equivalent chloride current. The AUC was collected from the time of the forskolin/VX-770 addition until the inhibition by bumetanide addition. Correction in response to compound treatment was scored as the increase in the AUC for compound-treated samples over that of vehicle-treated samples.
(+ indicates activity<150% of a CFTR amplifier (Compound A) with compound at concentration shown and Compound A at 3 uM; ++ indicates activity>150% of a CFTR amplifier with compound at concentration shown and Compound A at 3 uM.

T1 sequence (P13569 with tags, fused parts or gaps DEL508-508): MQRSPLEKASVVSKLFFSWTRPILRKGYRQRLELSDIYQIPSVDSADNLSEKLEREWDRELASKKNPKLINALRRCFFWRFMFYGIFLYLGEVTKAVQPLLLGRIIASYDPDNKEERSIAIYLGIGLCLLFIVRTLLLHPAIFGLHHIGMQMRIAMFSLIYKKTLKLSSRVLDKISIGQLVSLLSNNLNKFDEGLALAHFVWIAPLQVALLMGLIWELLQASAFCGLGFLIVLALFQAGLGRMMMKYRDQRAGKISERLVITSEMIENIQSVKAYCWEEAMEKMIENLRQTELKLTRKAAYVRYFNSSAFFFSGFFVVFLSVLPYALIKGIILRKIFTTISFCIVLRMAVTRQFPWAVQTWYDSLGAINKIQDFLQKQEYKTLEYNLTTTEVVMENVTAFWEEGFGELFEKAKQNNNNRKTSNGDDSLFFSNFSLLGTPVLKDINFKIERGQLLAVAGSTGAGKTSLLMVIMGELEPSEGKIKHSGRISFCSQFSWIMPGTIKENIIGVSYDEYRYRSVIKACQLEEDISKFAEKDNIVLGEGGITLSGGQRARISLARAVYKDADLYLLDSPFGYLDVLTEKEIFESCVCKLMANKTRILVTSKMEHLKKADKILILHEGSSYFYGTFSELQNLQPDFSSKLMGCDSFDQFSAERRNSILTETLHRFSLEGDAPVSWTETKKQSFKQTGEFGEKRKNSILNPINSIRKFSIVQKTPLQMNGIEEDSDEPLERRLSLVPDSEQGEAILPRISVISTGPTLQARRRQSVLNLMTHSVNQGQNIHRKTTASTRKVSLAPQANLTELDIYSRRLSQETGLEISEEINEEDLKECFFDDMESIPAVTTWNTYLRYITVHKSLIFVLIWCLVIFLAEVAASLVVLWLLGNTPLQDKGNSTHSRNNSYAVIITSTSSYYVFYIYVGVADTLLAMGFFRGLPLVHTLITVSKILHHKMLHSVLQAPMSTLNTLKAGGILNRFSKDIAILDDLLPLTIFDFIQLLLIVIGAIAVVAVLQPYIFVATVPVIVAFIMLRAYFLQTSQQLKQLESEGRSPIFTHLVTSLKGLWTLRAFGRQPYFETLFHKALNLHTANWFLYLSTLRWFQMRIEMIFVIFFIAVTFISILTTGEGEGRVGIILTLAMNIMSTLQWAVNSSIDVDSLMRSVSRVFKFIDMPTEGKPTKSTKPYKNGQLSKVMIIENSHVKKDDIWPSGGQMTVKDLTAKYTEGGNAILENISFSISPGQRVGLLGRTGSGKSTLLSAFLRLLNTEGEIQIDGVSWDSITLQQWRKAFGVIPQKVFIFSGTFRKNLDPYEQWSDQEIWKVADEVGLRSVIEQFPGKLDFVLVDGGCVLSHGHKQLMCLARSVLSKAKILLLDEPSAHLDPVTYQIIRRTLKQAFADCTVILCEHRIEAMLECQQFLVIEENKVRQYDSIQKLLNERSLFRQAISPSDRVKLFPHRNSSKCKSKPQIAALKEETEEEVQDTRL

With `COc1cccc(-c2ccc(=O)n(C(C)c3nc4ccccc4o3)n2)c1` (stereo not shown) [Compound 1, 2-[1-(1,3-benzoxazol-2-yl)ethyl]-6-(3-methoxyphenyl)-2,3-dihydropyridazin-3-one] the “Activity (AUC of equivalent chloride current, relative to CFTR amplifier Compound A)” value (compound at 3 μM) was “+ (activity<150% of a CFTR amplifier (Compound A) with compound at concentration shown and Compound A at 3 uM)” and the “Activity (AUC of equivalent chloride current, relative to CFTR amplifier Compound A)” value (compound at 10 μM) was “+ (activity<150% of a CFTR amplifier (Compound A) with compound at concentration shown and Compound A at 3 uM)”.

`COc1cccc(-c2ccc(=O)n(C(C)c3nnc(-c4ccc(C(F)(F)F)cc4)[nH]3)n2)c1` (stereo not shown) [Compound 12, 6-(3-Methoxyphenyl)-2-(1-(5-(4-(trifluoromethyl)phenyl)-4H-1,2,4-triazol-3-yl)ethyl)pyridazin-3(2H)-one] was tested, and the “Activity (AUC of equivalent chloride current, relative to CFTR amplifier Compound A)” value (compound at 10 μM) was “+ (activity<150% of a CFTR amplifier (Compound A) with compound at concentration shown and Compound A at 3 uM)”.

In the case of `COc1cccc(-c2ccc(=O)n(C(C)c3nc4cc(Cl)ccc4[nH]3)n2)c1` (stereo not shown) [Compound 5, 2-(1-(5-Chloro-1H-benzo[d]imidazol-2-yl)ethyl)-6-(3-methoxyphenyl)pyridazin-3(2H)-one], the “Activity (AUC of equivalent chloride current, relative to CFTR amplifier Compound A)” value (compound at 3 μM) is reported as “+ (activity<150% of a CFTR amplifier (Compound A) with compound at concentration shown and Compound A at 3 uM)” and the “Activity (AUC of equivalent chloride current, relative to CFTR amplifier Compound A)” value (compound at 10 μM) is reported as “+ (activity<150% of a CFTR amplifier (Compound A) with compound at concentration shown and Compound A at 3 uM)”.

In the case of `COc1cccc(-c2ccc(=O)n(C(C)c3nnc(-c4cccc(C(F)(F)F)c4)[nH]3)n2)c1` (stereo not shown) [Compound 13, 6-(3-Methoxyphenyl)-2-(1-(5-(3-(trifluoromethyl)phenyl)-4H-1,2,4-triazol-3-yl)ethyl)pyridazin-3(2H)-one], the “Activity (AUC of equivalent chloride current, relative to CFTR amplifier Compound A)” value (compound at 10 μM) is reported as “+ (activity<150% of a CFTR amplifier (Compound A) with compound at concentration shown and Compound A at 3 uM)”.

With `COc1cccc(-c2ccc(=O)n(C(C)c3nc4cc(C(C)(C)C)ccc4[nH]3)n2)c1` (stereo not shown) [Compound 4, 2-(1-(5-(tert-Butyl)-1H-benzo[d]imidazol-2-yl)ethyl)-6-(3-methoxyphenyl)pyridazin-3(2H)-one] the “Activity (AUC of equivalent chloride current, relative to CFTR amplifier Compound A)” value (compound at 3 μM) was “+ (activity<150% of a CFTR amplifier (Compound A) with compound at concentration shown and Compound A at 3 uM)” and the “Activity (AUC of equivalent chloride current, relative to CFTR amplifier Compound A)” value (compound at 10 μM) was “+ (activity<150% of a CFTR amplifier (Compound A) with compound at concentration shown and Compound A at 3 uM)”.

In the case of `CC(c1nc2cc(Cl)c(Cl)cc2[nH]1)n1nc(-c2cccc(Cl)c2)ccc1=O` (stereo not shown) [Compound 10, 6-(3-Chlorophenyl)-2-(1-(5,6-dichloro-1H-benzo[d]imidazol-2-yl)ethyl)pyridazin-3(2H)-one], the “Activity (AUC of equivalent chloride current, relative to CFTR amplifier Compound A)” value (compound at 3 μM) is reported as “+ (activity<150% of a CFTR amplifier (Compound A) with compound at concentration shown and Compound A at 3 uM)” and the “Activity (AUC of equivalent chloride current, relative to CFTR amplifier Compound A)” value (compound at 10 μM) is reported as “+ (activity<150% of a CFTR amplifier (Compound A) with compound at concentration shown and Compound A at 3 uM)”.

In the case of `COc1cccc(-c2ccc(=O)n(C(C)c3nc4ccccc4[nH]3)n2)c1` (stereo not shown) [Compound 2, 2-[1-(1H-1,3-benzodiazol-2-yl)ethyl]-6-(3-methoxyphenyl)-2,3-dihydropyridazin-3-one], the “Activity (AUC of equivalent chloride current, relative to CFTR amplifier Compound A)” value (compound at 10 μM) is reported as “+ (activity<150% of a CFTR amplifier (Compound A) with compound at concentration shown and Compound A at 3 uM)”.

With `CC(c1nc2cc(C(F)(F)F)ccc2[nH]1)n1nc(-c2cccc(Cl)c2)ccc1=O` (stereo not shown) [Compound 6, 6-(3-Chlorophenyl)-2-(1-(5-(trifluoromethyl)-1H-benzo[d]imidazol-2-yl)ethyl)pyridazin-3(2H)-one] the “Activity (AUC of equivalent chloride current, relative to CFTR amplifier Compound A)” value (compound at 3 μM) was “++ (activity>150% of a CFTR amplifier with compound at concentration shown and Compound A at 3 uM)” and the “Activity (AUC of equivalent chloride current, relative to CFTR amplifier Compound A)” value (compound at 10 μM) was “++ (activity>150% of a CFTR amplifier with compound at concentration shown and Compound A at 3 uM)”.

With `COc1cccc(-c2ccc(=O)n(C(C)c3nc4cc(Cl)c(Cl)cc4[nH]3)n2)c1` (stereo not shown) [Compound 9, 2-(1-(5,6-Dichloro-1H-benzo[d]imidazol-2-yl)ethyl)-6-(3-methoxyphenyl)pyridazin-3(2H)-one] the “Activity (AUC of equivalent chloride current, relative to CFTR amplifier Compound A)” value (compound at 3 μM) was “++ (activity>150% of a CFTR amplifier with compound at concentration shown and Compound A at 3 uM)” and the “Activity (AUC of equivalent chloride current, relative to CFTR amplifier Compound A)” value (compound at 10 μM) was “++ (activity>150% of a CFTR amplifier with compound at concentration shown and Compound A at 3 uM)”.

In the case of `COc1cccc(-c2ccc(=O)n(C(C)c3nnc(-c4ccccc4)[nH]3)n2)c1` (stereo not shown) [Compound 11, 6-(3-Methoxyphenyl)-2-[1-(5-phenyl-4H-1,2,4-triazol-3-yl)ethyl]-2,3-dihydropyridazin-3-one], the “Activity (AUC of equivalent chloride current, relative to CFTR amplifier Compound A)” value (compound at 10 μM) is reported as “+ (activity<150% of a CFTR amplifier (Compound A) with compound at concentration shown and Compound A at 3 uM)”.

`COc1cccc(-c2ccc(=O)n(C(C)c3nc4cc(C(F)(F)F)cnc4[nH]3)n2)c1` (stereo not shown) [Compound 8, 6-(3-Methoxyphenyl)-2-(1-(6-(trifluoromethyl)-3H-imidazo[4,5-b]pyridin-2-yl)ethyl)pyridazin-3(2H)-one] was tested, and the “Activity (AUC of equivalent chloride current, relative to CFTR amplifier Compound A)” value (compound at 3 μM) was “+ (activity<150% of a CFTR amplifier (Compound A) with compound at concentration shown and Compound A at 3 uM)” and the “Activity (AUC of equivalent chloride current, relative to CFTR amplifier Compound A)” value (compound at 10 μM) was “+ (activity<150% of a CFTR amplifier (Compound A) with compound at concentration shown and Compound A at 3 uM)”.

With `COc1cccc(-c2ccc(=O)n(C(C)c3nc4cc(C(F)(F)F)ccc4[nH]3)n2)c1` (stereo not shown) [Compound 3, 6-(3-Methoxyphenyl)-2-(1-(5-(trifluoromethyl)-1H-benzo[d]imidazol-2-yl)ethyl)pyridazin-3(2H)-one] the “Activity (AUC of equivalent chloride current, relative to CFTR amplifier Compound A)” value (compound at 3 μM) was “++ (activity>150% of a CFTR amplifier with compound at concentration shown and Compound A at 3 uM)” and the “Activity (AUC of equivalent chloride current, relative to CFTR amplifier Compound A)” value (compound at 10 μM) was “++ (activity>150% of a CFTR amplifier with compound at concentration shown and Compound A at 3 uM)”.

`COc1cccc(-c2ccc(=O)n(C(C)c3nc4nc(C(F)(F)F)ccc4[nH]3)n2)c1` (stereo not shown) [Compound 7, 6-(3-Methoxyphenyl)-2-(1-(5-(trifluoromethyl)-1H-imidazo[4,5-b]pyridin-2-yl)ethyl)pyridazin-3(2H)-one] was tested, and the “Activity (AUC of equivalent chloride current, relative to CFTR amplifier Compound A)” value (compound at 3 μM) was “+ (activity<150% of a CFTR amplifier (Compound A) with compound at concentration shown and Compound A at 3 uM)” and the “Activity (AUC of equivalent chloride current, relative to CFTR amplifier Compound A)” value (compound at 10 μM) was “+ (activity<150% of a CFTR amplifier (Compound A) with compound at concentration shown and Compound A at 3 uM)”.

Source: patent publication US20190248765A1, “COMPOUNDS, COMPOSITIONS, AND METHODS FOR INCREASING CFTR ACTIVITY” (Proteostasis Therapeutics, Inc., priority 2016, published 2019)
